# Measured values taken from US9856218B2, “Inhibitors of PRMT5 and methods of their use” (Ohio State Innovation Foundation, priority 2013, dated 2018).
# Where two headings read alike, the source gives them in different places.
# Key:
# [1] = In vivo pharmacokinetics, plasma concentration; design: species or system Mouse; details: for concentration at 0.08 h / concentration at 0.17 h / concentration at 0.33 h / concentration at 0.5 h / concentration at 1 h / concentration at 2 h / concentration at 4 h / concentration at 6 h / concentration at 8 h / concentration at 24 h: mouse, in vivo
# From the text: Pharmacokinetic data of compounds HLCL-7, HLCL-61, and HLCL-66 taken from an in vivo study is illustrated in Table 10. […]
# [2] = tested on: Mantle cell lymphoma cell line Jeko; assay: Induction of apoptosis, FITC-Annexin V-PI flow cytometry; format: cell-based
# Method: Analysis by flow cytometry. Cell viability was also measured by flow cytometry at 24 and 48 hr using annexin-V-FITC and propidium iodide (PI) according to the manufacturer's instructions (BD Biosciences).
# (§1) Following the synthesis of 14 compounds, the anti-proliferation and pro-apoptotic activities of those compounds was evaluated in Mantle cell lymphoma cell line Jeko. Replicate cultures of Jeko were incubated in DMSO and the compounds for 24, 48 and 72 hours. FITC-Annexin V-PI stained flow cytometry was used to detect the apoptotic population of cells (Table 4).
# [3] = biological target: T1, recombinant human PRMT5/MEP50 enzyme (Homo sapiens, UniProt O14744); assay: Epigenase PRMT methyltransferase (type II-specific) activity/inhibition assay kit; format: biochemical; details: 25 ng recombinant human PRMT5/MEP50 per reaction; read-out: Inhibition of PRMT5 mediated H4R3 methylation (IC50)
# T1 construct: purchased BPS Bioscience
# Method: The inhibition of PRMT5 mediated H4R3 methylation result was obtained with Epigenase™ PRMT methyltransferase (type II-specific) activity/inhibition assay kit. 25 ng recombinant human PRMT5/MEP50 enzyme (purchased from BPS Bioscience) was used in each reaction.
# [4] = 24 hr Quick MTD test, one mouse for each dose; format: in vivo
# Method: (§2) Controlled shRNA depletion was evaluated in a murine lymphoma model (Eμ-BRD2 (Chung, J., et al. (2013) J. Biological Chemistry 288, 35534-35547)) and human xenograft model of glioblastoma (Yan, F., et al (2014) Cancer Research In Press). Referring to FIG. 62A, controlled expression of a PRMT5 shRNA (solid line) but not control shRNA (dashed line) leads to 100% survival of mice engrafted primary DLBCL tumor cells. […] The maximum tolerated dose (MTD, single dose) was identified at 50 mg/kg (see Table 11 below). A sub-toxic dose (25 mg/kg) was used to treat FcMCL mice. Control mice developed peripheral blood and lymph node tumor burden starting day 20 post-engraftment.
# [5] = MTD study, four mice each dose; format: in vivo
# Method: as §2
# [6] = tested on: Mantle cell lymphoma cell line Jeko; assay: MTS anti-proliferation assay; format: cell-based
# Method: MTS proliferation assays were performed according the CellTiter 96™ Aqueous Cell Proliferation Assay Technical Bulletin (Promega, Madison, Wis.). 5×10^5 cells were plated in each well of a 96-well plate at 37° C. and assayed for proliferation at 24, 48, and 72 hr. Proliferation signal at 50% of control was used as IC50 for growth.
# as §1
# HNSCC tumor cells = assay: Proliferation of HNSCC tumor cells; format: cell-based; details: FIG. 58
# multiple cell lines = assay: Proliferation of multiple cell lines (FIG. 59); format: cell-based; details: FIG. 59A-E
# Method: Proliferation of multiple cell lines was evaluated for CMPD 5, CMPD 7, HLCL61, HLCL-65, and HLCL-66 (FIG. 59A-E).
# JeKo cells = assay: Immunofluorescence staining of methylated H4(Me2)R3 / H3(Me2)R8; format: cell-based; details: FIG. 2F
# Method: DAPI was used to stain nuclei.
# Immunofluorescence assays for screening for presence of type II PRMT epigenetic marks (H4(SMe2)R3) compared to type I mark (H4(AMe2)R3). Cell lines were incubated for 24 hours with all the 14 compounds. After 24 hours, cells were fixed, blocked and treated with mAbs specific for symmetric dimethylation and asymmetric dimethylation of histone H4R3 respectively. Alexa Fluor 488 conjugated 2nd Ab was used for the staining of histone marks (green). Draq5 was used to stain nuclei (blue).
# FcMCL mice = assay: FcMCL mantle cell lymphoma mouse model; format: in vivo; details: 25 mg/kg, IP, every other day
# Method: as §2
# [7] = mouse, in vivo, ip, 50 mg/kg, 24 h
# T1 sequence (O14744 2-637 limits assumed): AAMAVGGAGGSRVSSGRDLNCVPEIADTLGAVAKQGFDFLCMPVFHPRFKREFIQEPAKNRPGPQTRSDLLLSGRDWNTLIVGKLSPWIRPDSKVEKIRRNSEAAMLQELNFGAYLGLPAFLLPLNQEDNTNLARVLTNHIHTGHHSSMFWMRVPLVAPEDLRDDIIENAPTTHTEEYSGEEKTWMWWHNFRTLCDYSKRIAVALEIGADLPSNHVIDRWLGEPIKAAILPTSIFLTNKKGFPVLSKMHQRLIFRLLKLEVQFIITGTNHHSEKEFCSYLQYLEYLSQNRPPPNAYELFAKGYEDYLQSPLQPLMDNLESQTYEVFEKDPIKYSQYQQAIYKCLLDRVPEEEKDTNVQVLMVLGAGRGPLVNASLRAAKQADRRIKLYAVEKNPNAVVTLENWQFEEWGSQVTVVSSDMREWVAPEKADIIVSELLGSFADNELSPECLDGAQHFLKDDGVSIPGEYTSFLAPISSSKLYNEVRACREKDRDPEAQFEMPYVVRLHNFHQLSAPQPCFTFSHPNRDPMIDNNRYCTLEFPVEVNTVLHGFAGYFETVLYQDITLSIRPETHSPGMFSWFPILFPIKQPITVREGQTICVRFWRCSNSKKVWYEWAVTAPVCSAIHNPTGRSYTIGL
# T1 sequence (Q9BQA1 2-342 partner limits assumed): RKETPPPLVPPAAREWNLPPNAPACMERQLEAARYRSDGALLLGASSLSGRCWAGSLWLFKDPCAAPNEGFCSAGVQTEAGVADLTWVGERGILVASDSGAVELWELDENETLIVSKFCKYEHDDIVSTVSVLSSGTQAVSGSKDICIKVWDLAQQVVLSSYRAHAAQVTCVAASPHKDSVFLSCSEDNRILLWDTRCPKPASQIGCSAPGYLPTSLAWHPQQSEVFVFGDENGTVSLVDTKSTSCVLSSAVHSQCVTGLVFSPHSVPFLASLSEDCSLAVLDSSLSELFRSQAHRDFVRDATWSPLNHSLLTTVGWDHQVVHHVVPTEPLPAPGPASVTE
compound,measurement,setting,value
CCn1c2ccccc2c2cc(NC(=N)Nc3ccc(S(C)(=O)=O)cc3)ccc21 [HLCL-7],concentration at 0.08 h,"[1]; ip, 25 mg/kg",7570 nM
same,concentration at 0.17 h,"[1]; ip, 25 mg/kg",886 nM
same,concentration at 0.33 h,"[1]; ip, 25 mg/kg",7540 nM
same,concentration at 0.5 h,"[1]; ip, 25 mg/kg",7480 nM
same,concentration at 1 h,"[1]; ip, 25 mg/kg",4910 nM
same,concentration at 2 h,"[1]; ip, 25 mg/kg",7680 nM
same,concentration at 4 h,"[1]; ip, 25 mg/kg",4130 nM
same,concentration at 6 h,"[1]; ip, 25 mg/kg",2540 nM
same,concentration at 8 h,"[1]; ip, 25 mg/kg",2790 nM
same,concentration at 24 h,"[1]; ip, 25 mg/kg",1.35 nM
same,concentration at 0.08 h,"[1]; iv, 5 mg/kg",3240 nM
same,concentration at 0.17 h,"[1]; iv, 5 mg/kg",3070 nM
same,concentration at 0.33 h,"[1]; iv, 5 mg/kg",1500 nM
same,concentration at 0.5 h,"[1]; iv, 5 mg/kg",911 nM
same,concentration at 1 h,"[1]; iv, 5 mg/kg",601 nM
same,concentration at 2 h,"[1]; iv, 5 mg/kg",507 nM
same,concentration at 4 h,"[1]; iv, 5 mg/kg",200 nM
same,concentration at 6 h,"[1]; iv, 5 mg/kg",76.2 nM
same,concentration at 8 h,"[1]; iv, 5 mg/kg",77.1 nM
same,concentration at 24 h,"[1]; iv, 5 mg/kg",1.38 nM
same,EC50,[2]; 24 h,32 µM
same,EC50,[2]; 48 h,26 µM
same,IC50,[3],7 µM
same,survival after dosing,"[4]; IV-2.5 mg/kg, one mouse",Alive 24 hr after
same,survival after dosing,[4]; [7],Alive 24 hr after
same,survival after dosing,"[4]; mouse, in vivo, ip, 100 mg/kg, 24 h",Dead within 1 hr after
same,survival after dosing,"[4]; mouse, in vivo, ip, 200 mg/kg, 24 h",Dead within 1 hr after
same,survival after dosing,"[4]; mouse, in vivo, iv, 5 mg/kg, 24 h",Alive 24 hr after
same,clinical signs after dosing (slow moving),"[4]; mouse, in vivo, iv, 10 mg/kg",dosing but slow
same,survival after dosing,"[4]; mouse, in vivo, iv, 10 mg/kg, 24 h",Alive 24 hr after
same,survival after dosing,"[4]; mouse, in vivo, iv, 20 mg/kg",Dead instantly after
same,survival 24 hr after dosing,"[5]; mouse, in vivo, ip, 5 mg/kg, 24 h",Alive 24 hr after
same,condition within 1 hr after dosing (alive but slow moving),"[5]; mouse, in vivo, ip, 50 mg/kg",Alive within 1 hr after
same,mice lethargic and slow moving 24 hr after dosing,[5]; [7],"after dosing, 1 out 4"
same,survival 24 hr after dosing,[5]; [7],moving. Alive 24 hr
same,IC50,[6]; 24 h incubation,32 µM
same,IC50,[6]; 48 h incubation,26 µM
same,IC50,[6]; 72 h incubation,13 µM
same,proliferation of HNSCC tumor cells,HNSCC tumor cells,inhibit proliferation in a dose-dependent manner
"CCn1c2ccccc2c2cc(CNCc3ccccn3)ccc21 [CMP5, reference compound]","potency, proliferation of multiple cell lines",multiple cell lines,low micromolar range
same,"PRMT5 driven epigenetic marks (symmetrically methylated H4(Me2)R3, H3(Me2)R8)",JeKo cells,interferes with PRMT5 driven epigenetic marks
CCn1c2ccc(Br)cc2c2cc(CNCc3ccccc3OC)ccc21 [HLCL-65],peak plasma concentrations,"[1]; IV and IP routes at a dose of 25 mg/kg, FIG. 62B",8 to 20 µM
same,concentration at 0.08 h,"[1]; IP 25 mg/kg, DMSO solution, 0.08 h, read-out: Mouse plasma concentration",6240 nM
same,concentration at 0.17 h,"[1]; IP 25 mg/kg, DMSO solution, 0.17 h, read-out: Mouse plasma concentration",6270 nM
same,concentration at 0.33 h,"[1]; IP 25 mg/kg, DMSO solution, 0.33 h, read-out: Mouse plasma concentration",5280 nM
same,concentration at 0.5 h,"[1]; IP 25 mg/kg, DMSO solution, 0.50 h, read-out: Mouse plasma concentration",1660 nM
same,concentration at 1 h,"[1]; IP 25 mg/kg, DMSO solution, 1.00 h, read-out: Mouse plasma concentration",1590 nM
same,concentration at 2 h,"[1]; IP 25 mg/kg, DMSO solution, 2.00 h, read-out: Mouse plasma concentration",8450 nM
same,concentration at 4 h,"[1]; IP 25 mg/kg, DMSO solution, 4.00 h, read-out: Mouse plasma concentration",4510 nM
same,concentration at 6 h,"[1]; IP 25 mg/kg, DMSO solution, 6.00 h, read-out: Mouse plasma concentration",5480 nM
same,concentration at 8 h,"[1]; IP 25 mg/kg, DMSO solution, 8.00 h, read-out: Mouse plasma concentration",3710 nM
same,concentration at 24 h,"[1]; IP 25 mg/kg, DMSO solution, 24.0 h, read-out: Mouse plasma concentration",480 nM
same,concentration at 0.08 h,"[1]; IV 5 mg/kg, Tween80 formulation, 0.08 h, read-out: Mouse plasma concentration",2940 nM
same,concentration at 0.17 h,"[1]; IV 5 mg/kg, Tween80 formulation, 0.17 h, read-out: Mouse plasma concentration",2050 nM
same,concentration at 0.33 h,"[1]; IV 5 mg/kg, Tween80 formulation, 0.33 h, read-out: Mouse plasma concentration",2940 nM
same,concentration at 0.5 h,"[1]; IV 5 mg/kg, Tween80 formulation, 0.50 h, read-out: Mouse plasma concentration",2390 nM
same,concentration at 1 h,"[1]; IV 5 mg/kg, Tween80 formulation, 1.00 h, read-out: Mouse plasma concentration",1890 nM
same,concentration at 2 h,"[1]; IV 5 mg/kg, Tween80 formulation, 2.00 h, read-out: Mouse plasma concentration",1930 nM
same,concentration at 4 h,"[1]; IV 5 mg/kg, Tween80 formulation, 4.00 h, read-out: Mouse plasma concentration",1530 nM
same,concentration at 6 h,"[1]; IV 5 mg/kg, Tween80 formulation, 6.00 h, read-out: Mouse plasma concentration",720 nM
same,concentration at 8 h,"[1]; IV 5 mg/kg, Tween80 formulation, 8.00 h, read-out: Mouse plasma concentration",513 nM
same,concentration at 24 h,"[1]; IV 5 mg/kg, Tween80 formulation, 24.0 h, read-out: Mouse plasma concentration",29.6 nM
same,EC50,[2]; 24 h,4 µM
same,EC50,[2]; 48 h,5 µM
same,"potency, proliferation of multiple cell lines",multiple cell lines,low micromolar range
same,IC50,[3],30 µM
same,survival after dosing,"[4]; IP-50 mg/kg, one mouse",Alive 24 hr after
same,clinical signs after dosing,"[4]; IP-100 mg/kg, one mouse, after 24 hr",paralyzed
same,clinical signs after dosing,"[4]; IP-200 mg/kg, one mouse","Paralyzed after dosing,"
same,survival after dosing,"[4]; IP-200 mg/kg, one mouse",dead within 1 hr
same,survival after dosing,"[4]; IV-2.5 mg/kg, one mouse",Dead instantly after
same,survival after dosing,"[4]; IV-5 mg/kg, one mouse",Alive 24 hr after
same,survival after dosing,"[4]; IV-10 mg/kg, one mouse",Dead instantly after
same,survival after dosing,"[4]; IV-20 mg/kg, one mouse",Dead instantly after
same,survival 24 hr after dosing,"[5]; IP-5 mg/kg, four mice",Alive 24 hr after
same,condition within 1 hr after dosing (alive but slow moving),"[5]; IP-50 mg/kg, four mice",Alive within 1 hr after
same,survival 24 hr after dosing,"[5]; IP-50 mg/kg, four mice",moving. Alive 24 hr
same,MTD at 24 h,"[5]; mouse, in vivo, single dose, mice, read-out: maximum tolerated dose (MTD, single dose)",50 mg/kg
same,IC50,[6]; 24 h incubation,9 µM
same,IC50,[6]; 48 h incubation,8 µM
same,IC50,[6]; 72 h incubation,6 µM
same,tumor burden in FcMCL mice,FcMCL mice; lymph node versus peripheral blood,controlling development of lymph node tumor burden but not peripheral blood FcMCL tumor burden
same,survival of FcMCL mice,FcMCL mice; preliminary experiment,improved survival
